Patent publication US20200270237A1 (priority 2017, published 2020)

Each compound was assayed against Human α2δ-1 Subunit of Cav2.2 Calcium Channel (Homo sapiens, UniProt P54289) (assay: biochemical). Conditions: not given.
Assay type: binding

Human α2δ-1 Subunit of Cav2.2 Calcium Channel, sequence (P54289 25-1103): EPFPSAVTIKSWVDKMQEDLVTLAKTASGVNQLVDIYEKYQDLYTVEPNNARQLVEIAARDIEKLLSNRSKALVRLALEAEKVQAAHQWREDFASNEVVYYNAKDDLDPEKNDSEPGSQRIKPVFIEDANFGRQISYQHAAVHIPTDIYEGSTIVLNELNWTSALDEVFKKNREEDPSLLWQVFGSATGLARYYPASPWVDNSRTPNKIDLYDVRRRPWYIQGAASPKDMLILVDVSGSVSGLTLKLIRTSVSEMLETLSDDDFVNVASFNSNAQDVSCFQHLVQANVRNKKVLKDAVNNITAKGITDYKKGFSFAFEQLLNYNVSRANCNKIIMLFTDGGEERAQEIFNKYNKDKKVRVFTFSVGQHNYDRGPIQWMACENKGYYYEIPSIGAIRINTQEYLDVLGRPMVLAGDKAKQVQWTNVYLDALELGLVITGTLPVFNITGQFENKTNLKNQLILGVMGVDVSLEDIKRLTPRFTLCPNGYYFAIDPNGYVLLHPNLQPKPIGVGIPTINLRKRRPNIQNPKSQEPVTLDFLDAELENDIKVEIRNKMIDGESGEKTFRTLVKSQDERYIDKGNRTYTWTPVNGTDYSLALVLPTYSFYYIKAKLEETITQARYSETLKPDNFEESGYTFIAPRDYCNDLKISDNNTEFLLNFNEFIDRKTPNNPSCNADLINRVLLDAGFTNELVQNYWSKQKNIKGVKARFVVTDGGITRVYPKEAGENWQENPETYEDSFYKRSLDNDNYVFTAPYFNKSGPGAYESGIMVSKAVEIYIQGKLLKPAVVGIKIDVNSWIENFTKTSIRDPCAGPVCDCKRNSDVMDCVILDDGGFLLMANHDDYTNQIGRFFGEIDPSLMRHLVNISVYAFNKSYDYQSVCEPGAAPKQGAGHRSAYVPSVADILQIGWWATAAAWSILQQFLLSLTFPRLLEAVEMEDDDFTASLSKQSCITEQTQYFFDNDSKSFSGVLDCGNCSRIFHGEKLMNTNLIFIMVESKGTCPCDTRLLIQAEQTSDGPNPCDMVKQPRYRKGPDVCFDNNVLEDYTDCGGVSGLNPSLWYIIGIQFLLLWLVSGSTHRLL

Which Ki does the source give for `CNCC[C@@H](Oc1cccc(CN2CCC(c3cccc(O)c3)(N(C)C)CC2)c1)c1cccs1` [Example 17, (R)-3-(4-(dimethylamino)-1-(3-(3-(methylamino)-1-(thiophen-2-yl)propoxy)benzyl)piperidin-4-yl)phenol] here?
Its Ki is 100 to 500 nM.

For `CNCC[C@H](OCc1cccc(CN2CCC(c3cccc(O)c3)(N(C)C)CC2)c1)c1cccs1` [Example 23, (S)-3-(4-(dimethylamino)-1-(3-((3-(methylamino)-1-(thiophen-2-yl)propoxy)methyl)benzyl)piperidin-4-yl)phenol], which Ki is on record?
Its Ki is > 3000 nM.

How did the Ki turn out when `CNCC[C@@H](OCc1cccc(CN2CCC(c3cccc(O)c3)(N(C)C)CC2)c1)c1cccs1` [Example 24, (R)-3-(4-(dimethylamino)-1-(3-((3-(methylamino)-1-(thiophen-2-yl)propoxy)methyl)benzyl)piperidin-4-yl)phenol] was run?
The Ki was 500 to 3000 nM.

Which Ki does the source give for `CNCCC(OCc1cccc(CN2CCC(c3ccccc3)(N(C)C)CC2)c1)c1ccccc1` (centres unmarked) [Example 25] here?
Its Ki is 500 to 3000 nM.

How did the Ki turn out when `CNCC[C@@H](OCc1cccc(CN2CCC(c3ccccc3)(N(C)C)CC2)c1)c1ccccc1` [Example 26, (R)-N,N-dimethyl-1-(3-((3-(methylamino)-1-phenylpropoxy)methyl)benzyl)-4-phenylpiperidin-4-amine] was run?
The Ki was 500 to 3000 nM.

For `CNCC[C@H](OCc1cccc(CN2CCC(c3ccccc3)(N(C)C)CC2)c1)c1ccccc1` [Example 27, (S)-N,N-dimethyl-1-(3-((3-(methylamino)-1-phenylpropoxy)methyl)benzyl)-4-phenylpiperidin-4-amine], which Ki is on record?
The Ki was > 3000 nM.

With `CNCCC(Oc1cccc(N2C[C@@H](C)N[C@@H](C)C2)c1)c1cccs1` (stereo partly drawn) [Example 44, 3-(3-((3S,5R)-3,5-dimethylpiperazin-1-yl)phenoxy)-N-methyl-3-(thiophen-2-yl)propan-1-amine] as the compound, how does the Ki read?
The Ki was 100 to 500 nM.

How did the Ki turn out when `CNCCC(Oc1ccc(CN2CCC(c3ccccc3)(N(C)C)CC2)cc1)c1cccs1` (centres unmarked) [Example 51, N,N-dimethyl-1-(4-(3-(methylamino)-1-(thiophen-2-yl)propoxy)benzyl)-4-phenylpiperidin-4-amine] was run?
Its Ki is > 3000 nM.

`CNCCC(Oc1ccc(CN2CCCc3ccccc32)c(F)c1)c1cccs1` (centres unmarked) [Example 54, 3-(4-((3,4-Dihydroquinolin-1(2H)-yl)methyl)-3-fluorophenoxy)-N-methyl-3-(thiphen-2-yl)propan-1-amine] was tested. Which Ki did it give?
The Ki was > 3000 nM.

For `CNCCC(Oc1ccc(CN2CCc3ccccc3C2)c(F)c1)c1cccs1` (centres unmarked) [Example 55, 3-(4-((3,4-Dihydroisoquinolin-2(1H)-yl)methyl)-3-fluorophenoxy)-N-methyl-3-(thiophen-2-yl)propan-1-amine], which Ki is on record?
Its Ki is > 3000 nM.

For `CNCCC(Oc1ccc(CCN2CCC(c3ccccc3)(N(C)C)CC2)cc1)c1cccs1` (centres unmarked) [Example 57, N,N-dimethyl-1-(4-(3-(methylamino)-1-(thiophen-2-yl)propoxy)phenethyl)-4-phenylpiperidin-4-amine], which Ki is on record?
Its Ki is > 3000 nM.

Same assay, conditions: Table 1; human α2δ-1 enriched membranes, 15 nM [3H]-Gabapentin; read-out: Ki (nM) alpha2delta Hum

With `CNCCC(OCc1cccc(CN2CCC(c3ccccc3)(N(C)C)CC2)c1)c1cccs1` (centres unmarked) [Example 20, N,N-dimethyl-1-(3-((3-(methylamino)-1-(thiophen-2-yl)propoxy)methyl)benzyl)-4-phenylpiperidin-4-amine] as the compound, how does the Ki read?
Its Ki is 500 to 3000 nM.

How did the Ki turn out when `CNCC[C@H](OCc1cccc(CN2CCC(c3ccccc3)(N(C)C)CC2)c1)c1cccs1` [Example 21, (S)-N,N-dimethyl-1-(3-((3-(methylamino)-1-(thiophen-2-yl)propoxy)methyl)benzyl)-4-phenylpiperidin-4-amine] was run?
The Ki was > 3000 nM.

With `CNCC[C@@H](OCc1cccc(CN2CCC(c3ccccc3)(N(C)C)CC2)c1)c1cccs1` [Example 22, (R)-N,N-dimethyl-1-(3-((3-(methylamino)-1-(thiophen-2-yl)propoxy)methyl)benzyl)-4-phenylpiperidin-4-amine] as the compound, how does the Ki read?
Its Ki is 500 to 3000 nM.

Which Ki does the source give for `CNCCC(Oc1cccc(N2CCC(c3ccccc3)(N(C)C)CC2)c1)c1cccs1` (centres unmarked) [Example 43, N,N-dimethyl-1-(3-(3-(methylamino)-1-(thiophen-2-yl)propoxy)phenyl)-4-phenylpiperidin-4-amine] here?
Its Ki is 500 to 3000 nM.

Same assay, conditions: Table 2 (dual compounds); human α2δ-1 enriched membranes, 15 nM [3H]-Gabapentin; read-out: Ki (nM) alpha2delta Hum

For `CNCCC(OCc1cccc(CN2CCC(c3ccccc3)(N(C)C)CC2)c1)c1cccs1` (centres unmarked) [Example 20, N,N-dimethyl-1-(3-((3-(methylamino)-1-(thiophen-2-yl)propoxy)methyl)benzyl)-4-phenylpiperidin-4-amine], which Ki is on record?
Its Ki is 500 to 3000 nM.

For `CNCC[C@H](OCc1cccc(CN2CCC(c3ccccc3)(N(C)C)CC2)c1)c1cccs1` [Example 21, (S)-N,N-dimethyl-1-(3-((3-(methylamino)-1-(thiophen-2-yl)propoxy)methyl)benzyl)-4-phenylpiperidin-4-amine], which Ki is on record?
The Ki was > 3000 nM.

Which Ki does the source give for `CNCC[C@@H](OCc1cccc(CN2CCC(c3ccccc3)(N(C)C)CC2)c1)c1cccs1` [Example 22, (R)-N,N-dimethyl-1-(3-((3-(methylamino)-1-(thiophen-2-yl)propoxy)methyl)benzyl)-4-phenylpiperidin-4-amine] here?
The Ki was 500 to 3000 nM.

For `CNCCC(Oc1cccc(N2CCC(c3ccccc3)(N(C)C)CC2)c1)c1cccs1` (centres unmarked) [Example 43, N,N-dimethyl-1-(3-(3-(methylamino)-1-(thiophen-2-yl)propoxy)phenyl)-4-phenylpiperidin-4-amine], which Ki is on record?
Its Ki is 500 to 3000 nM.

Same assay, conditions: read-out: Ki (nM) alpha2delta Hum

Which Ki does the source give for `CNCC[C@H](Oc1cccc(CN2CCN([C@]3(C(=O)c4ccccn4)CCOC(C)(C)C3)CC2)c1)c1cccs1` [Example 18, ((R)-2,2-dimethyl-4-(4-(3-((S)-3-(methylamino)-1-(thiophen-2-yl)propoxy)benzyl)piperazin-1-yl)tetrahyrdro-2H-pyran-4-yl)(pyridin-2-yl)methanone] here?
Its Ki is > 3000 nM.

Which Ki does the source give for `CNCC[C@H](Oc1cccc(CN2CCN([C@@]3(C(=O)c4ccccn4)CCOC(C)(C)C3)CC2)c1)c1cccs1` [Example 19, ((S)-2,2-dimethyl-4-(4-(3-((S)-3-(methylamino)-1-(thiophen-2-yl)propoxy)benzyl)piperazin-1-yl)tetrahydro-2H-pyran-4-yl)(pyridin-2-yl)methanone] here?
Its Ki is > 3000 nM.

Which Ki does the source give for `CNCC[C@@H](OCc1cccc(CN2CCN([C@@]3(C(=O)c4ccccn4)CCOC(C)(C)C3)CC2)c1)c1ccccc1` [Example 28, ((S)-2,2-dimethyl-4-(4-(3-(((R)-3-(methylamino)-1-phenylpropoxy)methyl)benzyl)piperazin-1-yl)tetrahydro-2H-pyran-4-yl)(pyridin-2-yl)methanone] here?
The Ki was 500 to 3000 nM.

`CNCC[C@@H](OCc1cccc(CN2CCN([C@]3(C(=O)c4ccccn4)CCOC(C)(C)C3)CC2)c1)c1ccccc1` [Example 29, ((R)-2,2-dimethyl-4-(4-(3-(((R)-3-(methylamino)-1-phenylpropoxy)methyl)benzyl)piperazin-1-yl)tetrahydro-2H-pyran-4-yl)(pyridin-2-yl)methanone] was tested. Which Ki did it give?
Its Ki is 500 to 3000 nM.

How did the Ki turn out when `CC[C@@]1(N2CCN(Cc3cccc(CO[C@H](CCNC)c4ccccc4)c3)CC2)CCOC(C)(C)C1` [Example 30, (R)-3-((3-((4-((R)-4-ethyl-2,2-dimethyltetrahydro-2H-pyran-4-yl)piperazin-1-yl)methyl)benzyl)oxy)-N-methyl-3-phenylpropan-1-amine] was run?
Its Ki is > 3000 nM.

With `CC[C@]1(N2CCN(Cc3cccc(CO[C@H](CCNC)c4ccccc4)c3)CC2)CCOC(C)(C)C1` [Example 31, (R)-3-((3-((4-((S)-4-ethyl-2,2-dimethyltetrahydro-2H-pyran-4-yl)piperazin-1-yl)methyl)benzyl)oxy)-N-methyl-3-phenylpropan-1-amine] as the compound, how does the Ki read?
Its Ki is 500 to 3000 nM.

`CNCCC(Oc1cccc(N2CCCCC2=O)c1)c1ccccc1` (centres unmarked) [Example 33, 1-(3-(3-(Methylamino)-1-phenylpropoxy)phenyl)piperidin-2-one] was tested. Which Ki did it give?
Its Ki is > 3000 nM.

How did the Ki turn out when `CNCCC(Oc1cccc(N2CCCCC2=O)c1)c1cccs1` (centres unmarked) [Example 34, 1-(3-(3-(Methylamino)-1-(thiophen-2-yl)propoxy)phenyl)piperidin-2-one] was run?
Its Ki is > 3000 nM.

With `CNCCC(Oc1cccc(N2CCN(C)CC2)c1)c1ccccc1` (centres unmarked) [Example 35, N-methyl-3-(3-(4-methylpiperazin-1-yl)phenoxy)-3-phenylpropan-1-amine] as the compound, how does the Ki read?
Its Ki is 500 to 3000 nM.

Which Ki does the source give for `CNCCC(Oc1cccc(N2CCN(C)CC2=O)c1)c1cccs1` (centres unmarked) [Example 36, 4-Methyl-1-(3-(3-(methylamino)-1-(thiophen-2-yl)propoxy)phenyl)piperazin-2-one] here?
The Ki was > 3000 nM.

For `CNCCC(Oc1cccc(N2CCN(C)CC2)c1)c1cccs1` (centres unmarked) [Example 37, N-methyl-3-(3-(4-methylpiperazin-1-yl)phenoxy)-3-(thiophen-2-yl)propan-1-amine], which Ki is on record?
Its Ki is 500 to 3000 nM.

For `CNCCC(OCc1cccc(N2CCCCC2=O)c1)c1ccccc1` (centres unmarked) [Example 38, 1-(3-((3-(Methylamino)-1-phenylpropoxy)methyl)phenyl)piperidin-2-one], which Ki is on record?
Its Ki is 500 to 3000 nM.

Which Ki does the source give for `CNCCC(OCc1cccc(N2CCCCC2=O)c1)c1cccs1` (centres unmarked) [Example 39, 1-(3-((3-(Methylamino)-1-(thiophen-2-yl)propoxy)methyl)phenyl)piperidin-2-one] here?
The Ki was 500 to 3000 nM.

With `CNCCC(OCc1cccc(N2CCN(C)CC2)c1)c1ccccc1` (centres unmarked) [Example 40, N-methyl-3-((3-(4-methylpiperazin-1-yl)benzyl)oxy)-3-phenylpropan-1-amine] as the compound, how does the Ki read?
Its Ki is 500 to 3000 nM.

`CNCCC(OCc1cccc(N2CCN(C)CC2=O)c1)c1ccccc1` (centres unmarked) [Example 41, 4-Methyl-1-(3-((3-(methylamino)-1-phenylpropoxy)methyl)phenyl)piperazin-2-one] was tested. Which Ki did it give?
Its Ki is > 3000 nM.

How did the Ki turn out when `CNCCC(Oc1cccc(N2CCNCC2)c1)c1cccs1` (centres unmarked) [Example 42, N-methyl-3-(3-(piperazin-1-yl)phenoxy)-3-(thiophen-2-yl)propan-1-amine] was run?
The Ki was 500 to 3000 nM.

`CNCCC(OCc1cccc(N2CCC(N(C)C)CC2)c1)c1ccccc1` (centres unmarked) [Example 48, N,N-dimethyl-1-(3-((3-(methylamino)-1-phenylpropoxy)methyl)phenyl)piperidin-4-amine] was tested. Which Ki did it give?
Its Ki is 500 to 3000 nM.

With `CNCCC(OCc1ccc(N2CCC(c3ccccc3)(N(C)C)CC2)cc1)c1cccs1` (centres unmarked) [Example 49, N,N-dimethyl-1-(4-((3-(methylamino)-1-(thiophen-2-yl)propoxy)methyl)phenyl)-4-phenylpiperidin-4-amine] as the compound, how does the Ki read?
Its Ki is > 3000 nM.

`CNCC[C@H](Oc1ccc(CN2CCc3ccccc3C2=O)cc1)c1cccs1` [Example 50, (S)-(4-(3-(methylamino)-1-(thiophen-2-yl)propoxy)benzyl)-3,4-dihydroisoquinolin-1(2H)-one] was tested. Which Ki did it give?
The Ki was 500 to 3000 nM.

With `CNCCC(Oc1ccc(CN2CCN(C)CC2)cc1)c1cccs1` (centres unmarked) [Example 52, N-methyl-3-(4-((4-methylpiperazin-1-yl)methyl)phenoxy)-3-(thiophen-2-yl)propan-1-amine] as the compound, how does the Ki read?
Its Ki is > 3000 nM.

With `CNCC[C@H](Oc1ccc(CN2CCn3cccc3C2=O)cc1)c1cccs1` [Example 53, (S)-2-(4-(3-(methylamino)-1-(thiophen-2-yl)propoxy)benzyl)-3,4-dihydropyrrolo[1,2-a]pyrazin-1(2H)-one] as the compound, how does the Ki read?
The Ki was 500 to 3000 nM.

With `CNCCC(Oc1ccc(C(=O)N2CCC(c3ccccc3)(N(C)C)CC2)cc1)c1cccs1` (centres unmarked) [Example 56, (4-(Dimethylamino)-4-phenylpiperidin-1-yl)(4-(3-(methylamino)-1-(thiophen-2-yl)propoxy)phenyl)methanone] as the compound, how does the Ki read?
Its Ki is > 3000 nM.

These compounds were tested against human μ-opioid receptor (Homo sapiens, UniProt P35372) (assay: biochemical). Conditions: not given.
human μ-opioid receptor, sequence (P35372 whole entry): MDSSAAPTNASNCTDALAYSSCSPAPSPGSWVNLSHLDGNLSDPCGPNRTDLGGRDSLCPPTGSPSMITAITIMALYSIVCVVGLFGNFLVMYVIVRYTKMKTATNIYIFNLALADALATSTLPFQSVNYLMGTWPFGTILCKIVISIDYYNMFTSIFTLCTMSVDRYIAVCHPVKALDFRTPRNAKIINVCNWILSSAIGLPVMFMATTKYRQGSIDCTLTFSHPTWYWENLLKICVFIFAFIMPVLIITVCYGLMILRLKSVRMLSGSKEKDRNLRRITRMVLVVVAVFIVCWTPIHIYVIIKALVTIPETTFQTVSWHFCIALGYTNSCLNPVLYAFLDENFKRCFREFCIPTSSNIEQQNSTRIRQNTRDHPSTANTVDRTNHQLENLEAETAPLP
Assay type: binding

For `CNCCC(OCc1cccc(CN2CCC(c3ccccc3)(N(C)C)CC2)c1)c1ccccc1` (centres unmarked) [Example 25], which Ki is on record?
The Ki was < 100 nM.

`CNCC[C@@H](OCc1cccc(CN2CCC(c3ccccc3)(N(C)C)CC2)c1)c1ccccc1` [Example 26, (R)-N,N-dimethyl-1-(3-((3-(methylamino)-1-phenylpropoxy)methyl)benzyl)-4-phenylpiperidin-4-amine] was tested. Which Ki did it give?
Its Ki is < 100 nM.

`CNCC[C@H](OCc1cccc(CN2CCC(c3ccccc3)(N(C)C)CC2)c1)c1ccccc1` [Example 27, (S)-N,N-dimethyl-1-(3-((3-(methylamino)-1-phenylpropoxy)methyl)benzyl)-4-phenylpiperidin-4-amine] was tested. Which Ki did it give?
Its Ki is < 100 nM.
